Measurements taken from patent US10227295B2, “Selective histone deactylase 6 inhibitors” (H. LEE MOFFITT CANCER CENTER AND RESEARCH INSTITUTE, INC., priority 2013, dated 2019).

Assays:
Type in all cases: cell-based
[1] = system: NRAS and BRAF mutant human melanoma cell lines; assay: Human melanoma cell proliferation MTS assay; settings: 24 h, panel of human melanoma cell lines
Method: Cell proliferation was evaluated using various pan- and isotype selective HDACi in a broad panel of human melanoma cell lines. Briefly, cells were plated at 10×10^3/well in a 96 well flat bottom plate. The following day, media was changed to that containing different concentrations of HDACi or matched DMSO vehicle concentrations diluted in complete medium done in triplicate, all with a final concentration of less than 0.1% DMSO. Cells were incubated for 24 hours at 37° C. and 5% CO2. […] All values were then normalized and expressed as a percentage of medium control growth.

[2] = system: acetyl-tubulin and acetyl-histone3 in human melanoma cell lines; assay: Western blot of HDAC substrate acetylation in human melanoma cells; settings: 24 hrs
Method: Error bars represent standard deviation from triplicates. This figure is representative of three independent experiments. (F,G,H) Cell cycle analysis of melanoma WM164, WM983A and WM793 human melanoma cell lines stained with propidium iodide. Data is representative of three experiments with similar results.
To confirm the selectivity of isotype specific HDACi, Western blot analysis was performed on the acetylation status of known HDAC substrates including histone H3 and H4, which are known Class I HDAC targets, and α-tubulin, a target for HDAC6. The doses required to impart the anti-proliferative effect coincided with that needed to increase acetylation of the respective HDAC substrates (FIG. 41F-41H). […] Conversely, HDAC6 selective inhibitors (HDAC6i) increase α-tubulin acetylation but not histone acetylation (FIG. 41F).

[3] = system: human melanoma cell lines; assay: Cell cycle analysis by propidium iodide staining
Method: Cells were treated with indicated doses of HDAC inhibitors or DMSO control and then trypsinized, washed, and rendered into a single cell suspension in 1 mL of DPBS. 4 mL ice cold 200 proof ethyl alcohol was added dropwise while vortexing to fix cells. Samples were washed and resuspended in 75% ethanol solution overnight. Then, cells were washed in PBS+0.1% Triton X-100 and counted. Equal numbers of cells were then stained in a solution containing 10 μg/mL RNAseA+1 μg/mL propidium iodide for 2 hours at room temperature. Data was then acquired using a FACSCaliber with at least 10,000 events collected. Cell cycle analysis was completed using ModFit LT (Verity Software House, Topsham, Me.).

**Q.** Which “concentration range inhibiting proliferation (in words)” value [1] does the source give for Nc1ccccc1NC(=O)c1ccc(CNc2nccc(-c3cccnc3)n2)cc1 [MGCD0103] here?
**A.** The value was “low micromolar range”.

**Q.** And the “acetylation of α-tubulin and histone” value [2]?
**A.** The value was “unchanged”.

**Q.** And the cell cycle effects [3]?
**A.** Its cell cycle effects is “variable cell cycle effects”.
